Results from patent US20140357512A1, “HISTONE DEACETYLASE (HDAC) BIOMARKERS IN MULTIPLE MYELOMA” (priority 2013, published 2014).

Tested on: human myeloma cell line MM.1S
Test: SILAC acetylated-lysine peptide profiling, HDAC inhibitor vs DMSO (light/heavy ratio)
Type: cell-based
Description: An embodiment of the invention comprises utilizing the SILAC method in order to quantitate changes in protein expression between two or more populations of cells. The SILAC method is a technique based on mass spectrometry that detects differences in protein abundance among samples using non-radioactive isotopic labeling. The SILAC method is known in the art, and described in detail in Ong et al., “Stable Isotope Labeling by Amino Acids in Cell Culture, SILAC, as a Simple and Accurate Approach to Expression Proteomics”, Molecular & Cellular Proteomics, vol. 1, pp. 376-386 (2002), which is incorporated herein by reference in its entirety.
Briefly, the SILAC method involves growing two populations of cells in cell culture. The first population of cells is grown in growth media containing normal amino acids (“normal media”). The second population of cells is grown in media lacking a standard essential amino acid (such as lysine), but is then supplemented with a non-radioactive, isotopically labeled form of that essential amino acid (such as lysine labeled with ^13C atoms, rather than normal ^12C atoms), which is called “heavy media”. When the two populations of cells are each growing in the medium, they incorporate the amino acids into all of their proteins. The growth of cells maintained in the heavy media is no different from that in normal media. All peptides containing the heavy amino acids are heavier than their normal counterparts. The cells from each of the two populations of cells are lysed. The lysates from each of the two cell populations are then combined. The combined cell lysates are then analyzed by mass spectrometry. Pairs of chemically identical peptides of different stable isotope composition can be differentiated in a mass spectrometer due to their difference in mass. The ratio of peak intensities in the mass spectrum for such peptide pairs reflects the abundance ratio for the two proteins.
This example describes SILAC studies that were performed to compare the effects of three different HDAC inhibitors (Compound A, Compound B, and tubastatin A) to a control on a human multiple myeloma cell line. The HDAC inhibitors were also compared amongst themselves to determine differences in their effects.
A human myeloma cell line MM.1S was grown using either ^12C (light) or ^13C (heavy) lysine containing culture medium. The “heavy” cells were treated with DMSO as the control, and the “light” cells were treated with a single HDAC inhibitor at 37° C. for 6 hours. The heavy and light cells were lysed, and the lysates were mixed in 1:1 ratio and digested with the protease trypsin. The acetylated lysine containing peptides (due to the action of the HDAC inhibitor) in the digested peptide pool were captured by a non-specific anti-acetylated lysine antibody cocktail (the antibodies identify both light and heavy acetylated peptides), and subjected to mass spectrometry analysis in order to identify thousands of individual peptides.
Thousands of peptides were identified in pairs (^12C and ^13C) due to their known mass differences. The amino acid sequence and quantitative ratio (Light/Heavy) of a given peptide in two differentially treated cell lysates were then determined and annotated with their possible protein (gene) sources.
As stated above, three HDAC inhibitors (Compound A, Compound B, and Tubastatin A) were used. Thus, the SILAC method was performed three times, with a different HDAC inhibitor compared to a control each time. Accordingly, there are three pairs of quantitative data in the table below, i.e., Compound A:DMSO, Compound B:DMSO, and Tubastatin A:DMSO. A cut-off of 1.30 fold of change (increase or decrease) was then used to determine “changed” or “+” in the table, and any peptides with a fold of change less than 1.3 fold were determined to be “unchanged” or “0” in the table. Those peptides that were not identified were marked as “NA” in the table. […]

CN1CCc2c(c3ccccc3n2Cc2ccc(C(=O)NO)cc2)C1 [Tub A]
light to heavy ratio (L/H ratio) of acetylated peptide AVDCLLDSK(ac)WAK (SEQ ID NO: 518) (Translocation protein SEC62 [60], gene SEC62, inhibitor:DMSO): 0.00 log 2 | light to heavy ratio (L/H ratio) of acetylated peptide VK(ac)FIHDQTSPNPK (SEQ ID NO: 562) (Tricarboxylate transport protein mitochondrial [149], gene SLC25A1, inhibitor:DMSO): 0.00 log 2 | light to heavy ratio (L/H ratio), log 2 scale, acetylated peptide FGAPQK(ac)DVK (SEQ ID NO: 788) (Trifunctional enzyme subunit alpha mitochondrial [359], gene HADHA, drug:DMSO): 0.00 | light to heavy ratio (L/H ratio), log 2 scale, acetylated peptide ILQEGVDPK(ac)K (SEQ ID NO: 789) (Trifunctional enzyme subunit alpha mitochondrial [569], gene HADHA, drug:DMSO): 0.00 | light to heavy ratio (L/H ratio) of acetylated peptide VPGK(ac)DTVTK (SEQ ID NO: 308) (Trifunctional enzyme subunit beta mitochondrial [272], HADHB, drug:DMSO): 0.40 log 2 | L/H ratio of acetylated peptide VVVTK(ac)YCDPDSYHR (SEQ ID NO: 114) (U2AF2 [462], log 2 scale, drug vs DMSO): −0.43 | L/H ratio of acetylated peptide (VAILK(ac)ANLR (SEQ ID NO: 488), Transitional endoplasmic reticulum ATPase [658], VCP): 0.00 log 2 | light to heavy ratio (L/H ratio) of acetylated peptide, log 2 scale (VALEIFQHSK(ac)YK (SEQ ID NO: 183), Isoform 2 of 39S ribosomal protein L39 mitochondrial [234], MRPL39): 0.64 | L/H ratio of acetylated peptide FGIAAK(ac)YQIDPDACFSAK (SEQ ID NO: 115) (VDAC1 [224], log 2 scale, drug vs DMSO): 0.47 | L/H ratio of acetylated peptide YK(ac)WCEYGLTFTEK (SEQ ID NO: 116) (VDAC2 [63], log 2 scale, drug vs DMSO): 0.59 | L/H ratio of acetylated peptide (ac)CNTPTYCDLGK(ac)AAK (SEQ ID NO: 6) (VDAC3 [12], log 2 scale, drug vs DMSO): 0.52 | L/H ratio of acetylated peptide YK(ac)VCNYGLTFTQK (SEQ ID NO: 117) (VDAC3 [63], log 2 scale, drug vs DMSO): 0.40 | L/H ratio of acetylated peptide (VIIVVK(ac)DGPGFYTTR (SEQ ID NO: 401), Trifunctional enzyme subunit alpha mitochondrial [540], HADHA): 0.00 log 2 | L/H ratio of acetylated peptide TNEK(ac)VELQELNDR (SEQ ID NO: 122) (VIM [104], log 2 scale, drug vs DMSO): −0.59 | L/H ratio of acetylated peptide FANYIDK(ac)VR (SEQ ID NO: 118) (VIM [120], log 2 scale, drug vs DMSO): −0.65 | L/H ratio of acetylated peptide ILLAELEQLK(ac)GQGK (SEQ ID NO: 119) (VIM [139], log 2 scale, drug vs DMSO): −0.82 | L/H ratio of acetylated peptide SK(ac)FADLSEAANR (SEQ ID NO: 121) (VIM [294], log 2 scale, drug vs DMSO): −0.60 | L/H ratio of acetylated peptide LQDEIQNMK(ac)EEMAR (SEQ ID NO: 120) (VIM [373], log 2 scale, drug vs DMSO): −0.72 | light to heavy ratio (L/H ratio) of acetylated peptide, log 2 scale (VLK(ac)GNTAEGCVHETQEK (SEQ ID NO: 186), Isoform 1 of Myb-binding protein 1A [935], MYBBP1A): −0.43 | light to heavy ratio (L/H ratio) of acetylated peptide, log 2 scale (VLPSIVNEVLK(ac)SVVAK (SEQ ID NO: 195), Prohibitin-2 [142], PHB2): 1.00 | light to heavy ratio (L/H ratio) of acetylated peptide, log 2 scale (VNLQNNPGAMEHFHMK(ac)LFR (SEQ ID NO: 136), B-cell receptor-associated protein 31 [95], BCAP31): 0.52 | light to heavy ratio (L/H ratio) of acetylated peptide, log 2 scale (VTEK(ac)IPVR (SEQ ID NO: 168), Isoform Short of Heterogeneous nuclear ribonucleoprotein U [324], HNRNPU): −0.76 | light to heavy ratio (L/H ratio) of acetylated peptide, log 2 scale (VVVGK(ac)TFDSIVMDPK (SEQ ID NO: 193), Protein disulfide-isomerase A4 [533], PDIA4): −0.80 | light to heavy ratio (L/H ratio) of acetylated peptide DLQQYQSQAK(ac)QLFR (SEQ ID NO: 321) (Vesicle-trafficking protein SEC22b [38], SEC22B, drug:DMSO): 0.46 log 2 | light to heavy ratio (L/H ratio) of acetylated peptide TLLIK(ac)TVETR (SEQ ID NO: 269) (Vimentin [445], VIM, drug:DMSO): −0.54 log 2 | light to heavy ratio (L/H ratio) of acetylated peptide, log 2 scale (WVFK(ac)EEGVLR (SEQ ID NO: 150), Dolichyl-diphosphooligosaccharide--protein glycosyltransferase 48 kDa subunit [301], DDOST): −0.53 | light to heavy ratio (L/H ratio) of acetylated peptide KQELLEALTK(ac)HFQD (SEQ ID NO: 355) (X-ray repair cross-complementing protein 6 [605], XRCC6, drug:DMSO): 0.00 log 2 | L/H ratio of acetylated peptide ALQEK(ac)VEIK (SEQ ID NO: 123) (XRCC5 [665], log 2 scale, drug vs DMSO): −0.46 | light to heavy ratio (L/H ratio) of acetylated peptide, log 2 scale (YGPFVADFADK(ac)LNEQK (SEQ ID NO: 134), ATP synthase subunit b mitochondrial [126], ATP5F1): −0.45 | light to heavy ratio (L/H ratio) of acetylated peptide, log 2 scale (YIAK(ac)QESVEER (SEQ ID NO: 140), Isoform 3 of Coiled-coil domain-containing protein 144A [754], CCDC144A): −0.42 | light to heavy ratio (L/H ratio) of acetylated peptide, log 2 scale (YLENGK(ac)ETLQR (SEQ ID NO: 163), Putative HLA class I histocompatibility antigen alpha chain H [200], HLA-H): −0.46 | light to heavy ratio (L/H ratio) of acetylated peptide, log 2 scale (YLLYGEK(ac)GTGK (SEQ ID NO: 147), 28S ribosomal protein S29 mitochondrial [130], DAP3): 0.46 | light to heavy ratio (L/H ratio) of acetylated peptide YFLDK(ac)TLTSR (SEQ ID NO: 293) ([3-methyl-2-oxobutanoate dehydrogenase [lipoamide]] kinase mitochondrial [192], BCKDK, drug:DMSO): 0.50 log 2 | light to heavy ratio (L/H ratio) of acetylated peptide, log 2 scale ([…](ac)PER (SEQ ID NO: 219), cDNA FLJ59739 highly similar to Protein transport protein Sec61 subunit alpha isoform 1 [27], SEC61A1): 0.49 | light to heavy ratio (L/H ratio) of acetylated peptide SAYFAEK(ac)LYK (SEQ ID NO: 292) (annexin A4 [255], ANXA4, drug:DMSO): 0.62 log 2 | light to heavy ratio (L/H ratio) of acetylated peptide ILMSK(ac)PVLSGGTGR (SEQ ID NO: 291) (cDNA FLJ55380 highly similar to Protein kinase C-binding protein 1 [440], ZMYND8, drug:DMSO): 0.65 log 2 | light to heavy ratio (L/H ratio) of acetylated peptide YDGK(ac)WEVEEMK (SEQ ID NO: 274) (cDNA FLJ55574 highly similar to Calnexin [138], CANX, drug:DMSO): −0.49 log 2 | light to heavy ratio (L/H ratio) of acetylated peptide LNK(ac)PFLFDTK (SEQ ID NO: 327) (cDNA FLJ55574 highly similar to Calnexin [172], CANX, drug:DMSO): 0.00 log 2 | light to heavy ratio (L/H ratio) of acetylated peptide LLASK(ac)SLLNR (SEQ ID NO: 322) (cDNA FLJ56303 highly similar to Translocon-associated protein subunit beta [46], SSR2, drug:DMSO): −0.59 log 2 | light to heavy ratio (L/H ratio) of acetylated peptide IINEVSK(ac)PLAHHIPVEK (SEQ ID NO: 341) (cDNA FLJ77177 highly similar to Homo sapiens arginine-rich mutated in early stage tumors (ARMET) mRNA [97], MANF, drug:DMSO): 0.00 log 2 | light to heavy ratio (L/H ratio) of acetylated peptide TNVPVK(ac)LFAR (SEQ ID NO: 348) (cDNA FLJ77422 highly similar to Homo sapiens RNA binding protein autoantigenic (hnRNP-associated with lethal yellow homolog (mouse)) transcript variant 1 mRNA (Fragment) [165], RALY, drug:DMSO): 0.00 log 2 | light to heavy ratio (L/H ratio) of acetylated peptide GSK(ac)FYGPAGPYGIFAGR (SEQ ID NO: 265) (membrane-associated progesterone receptor component 2 [159], PGRMC2, drug:DMSO): −0.45 log 2 | light to heavy ratio (L/H ratio) of acetylated peptide SK(ac)SDPIMLLK (SEQ ID NO: 255) (pyruvate dehydrogenase E1 component subunit alpha somatic form mitochondrial isoform 2 precursor [351], PDHA1, drug:DMSO): 0.52 log 2 | light to heavy ratio (L/H ratio) of acetylated peptide LTSLNVK(ac)YNNDK (SEQ ID NO: 590) (regulator of differentiation 1 isoform 2 [236], gene ROD1, inhibitor:DMSO): 0.00 log 2 | light to heavy ratio (L/H ratio) of acetylated peptide GWLK(ac)SNVSDAVAQSTR (SEQ ID NO: 278) (triosephosphate isomerase isoform 2 [231], TPI1, TPI1P1, drug:DMSO): −0.41 log 2
